Measurements published in patent US12077503B2, “Substituted cyclic amides and their use as herbicides” (FMC CORPORATION, priority 2015, dated 2024).

Columns and labels:
Format in all cases: in vivo
[1] = tested on: sedge, umbrella (small-flower umbrella sedge, Cyperus difformis); assay: Test B flooded paddy test; details: Flood, 250 g ai/ha; 0 to 100 scale where 0 is no effect and 100 is complete control; 13 to 15 d
Summary of the method: (§1)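 Compound goes directly into floodwater once pots are flooded 3 cm above soil, targeting plants at two leaves; the water depth is then held for the test duration. Plants sit 13–15 d in a greenhouse and are rated visually, 100 denoting complete control.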

[2] = tested on: rice (Oryra sativa); assay: Test B flooded paddy test; details: Flood, 250 g ai/ha; 0 to 100 scale where 0 is no effect and 100 is complete control; 13 to 15 d
Summary of the method: as §1

[3] = tested on: ducksalad (Heteranthera limosa); assay: Test B flooded paddy test; details: Flood, 250 g ai/ha; 0 to 100 scale where 0 is no effect and 100 is complete control; 13 to 15 d
Summary of the method: as §1

[4] = tested on: barnyardgrass (Echinochloa crus-galli); assay: Test B flooded paddy test; details: Flood, 250 g ai/ha; 0 to 100 scale where 0 is no effect and 100 is complete control; 13 to 15 d
Summary of the method: as §1

[5] = tested on: giant foxtail (Setaria faberii); assay: Test A postemergence; details: postemergence; for Foxtail, Giant plant response rating: 125 g ai/ha, visual injury rating on 0 to 100 scale (0 no effect, 100 complete control), approx. 10 d; for Plant response rating, Foxtail, Giant: 500 g ai/ha, 0 to 100 scale, 0 no effect, 100 complete control
Summary of the method: (§2)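 Ratings of 0 (no effect) to 100 (complete control) come from visual comparison with untreated controls roughly 10 d after treatment. Test chemicals, formulated in a non-phytotoxic solvent mixture with surfactant, were applied either as a preemergence directed soil spray on seeded soil or postemergence to one- to two-leaf plants 2 to 10 cm tall.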

[6] = tested on: ryegrass, Italian (Italian ryegrass, Lolium multiflorum); assay: Test A postemergence; details: postemergence; for Ryegrass, Italian plant response rating: 125 g ai/ha, visual injury rating on 0 to 100 scale (0 no effect, 100 complete control), approx. 10 d; for Plant response rating, Ryegrass, Italian: 500 g ai/ha, 0 to 100 scale, 0 no effect, 100 complete control
Summary of the method: as §2

[7] = tested on: corn (Zea mays); assay: Test A postemergence; details: postemergence; for Corn plant response rating: 125 g ai/ha, visual injury rating on 0 to 100 scale (0 no effect, 100 complete control), approx. 10 d; for Plant response rating, Corn: 500 g ai/ha, 0 to 100 scale, 0 no effect, 100 complete control
Summary of the method: as §2

[8] = tested on: Galium (catchweed bedstraw, Galium aparine); assay: Test A postemergence; details: postemergence; for Galium plant response rating: 125 g ai/ha, visual injury rating on 0 to 100 scale (0 no effect, 100 complete control), approx. 10 d; for Plant response rating, Galium: 500 g ai/ha, 0 to 100 scale, 0 no effect, 100 complete control
Summary of the method: as §2

[9] = tested on: Kochia (Kochia scoparia); assay: Test A postemergence; details: postemergence; for Kochia plant response rating: 125 g ai/ha, visual injury rating on 0 to 100 scale (0 no effect, 100 complete control), approx. 10 d; for Plant response rating, Kochia: 500 g ai/ha, 0 to 100 scale, 0 no effect, 100 complete control
Summary of the method: as §2

[10] = tested on: blackgrass (Alopecurus myosuroides); assay: Test A postemergence; details: postemergence; for Blackgrass plant response rating: 125 g ai/ha, visual injury rating on 0 to 100 scale (0 no effect, 100 complete control), approx. 10 d; for Plant response rating, Blackgrass: 500 g ai/ha, 0 to 100 scale, 0 no effect, 100 complete control
Summary of the method: as §2

[11] = tested on: ragweed (common ragweed, Ambrosia elatior); assay: Test A postemergence; details: postemergence; for Ragweed plant response rating: 125 g ai/ha, visual injury rating on 0 to 100 scale (0 no effect, 100 complete control), approx. 10 d; for Plant response rating, Ragweed: 500 g ai/ha, 0 to 100 scale, 0 no effect, 100 complete control
Summary of the method: as §2

[12] = tested on: barnyardgrass (Echinochloa crus-galli); assay: Test A postemergence; details: postemergence; for Barnyardgrass plant response rating: 125 g ai/ha, visual injury rating on 0 to 100 scale (0 no effect, 100 complete control), approx. 10 d; for Plant response rating, Barnyardgrass: 500 g ai/ha, 0 to 100 scale, 0 no effect, 100 complete control
Summary of the method: as §2

[13] = tested on: pigweed (Amaranthus retroflexus); assay: Test A postemergence; details: postemergence; for Pigweed plant response rating: 125 g ai/ha, visual injury rating on 0 to 100 scale (0 no effect, 100 complete control), approx. 10 d; for Plant response rating, Pigweed: 500 g ai/ha, 0 to 100 scale, 0 no effect, 100 complete control
Summary of the method: as §2

[14] = tested on: wheat (Triticum aestivum); assay: Test A postemergence; details: postemergence; for Wheat plant response rating: 125 g ai/ha, visual injury rating on 0 to 100 scale (0 no effect, 100 complete control), approx. 10 d; for Plant response rating, Wheat: 500 g ai/ha, 0 to 100 scale, 0 no effect, 100 complete control
Summary of the method: as §2

[15] = tested on: giant foxtail (Setaria faberii); assay: Test A preemergence; details: for Plant response rating, Foxtail, Giant: 125 g ai/ha, preemergence, 0 to 100 scale (0 no effect, 100 complete control); for Foxtail, Giant plant response rating (0 to 100 scale, 0 is no effect, 100 is complete control): Preemergence, 500 g ai/ha, visual injury approx. 10 d
Summary of the method: as §2

[16] = tested on: ryegrass, Italian (Italian ryegrass, Lolium multiflorum); assay: Test A preemergence; details: for Plant response rating, Ryegrass, Italian: 125 g ai/ha, preemergence, 0 to 100 scale (0 no effect, 100 complete control); for Ryegrass, Italian plant response rating (0 to 100 scale, 0 is no effect, 100 is complete control): Preemergence, 500 g ai/ha, visual injury approx. 10 d
Summary of the method: as §2

[17] = tested on: Kochia (Kochia scoparia); assay: Test A preemergence; details: for Plant response rating, Kochia: 125 g ai/ha, preemergence, 0 to 100 scale (0 no effect, 100 complete control); for Kochia plant response rating (0 to 100 scale, 0 is no effect, 100 is complete control): Preemergence, 500 g ai/ha, visual injury approx. 10 d
Summary of the method: as §2

[18] = tested on: ragweed (common ragweed, Ambrosia elatior); assay: Test A preemergence; details: for Plant response rating, Ragweed: 125 g ai/ha, preemergence, 0 to 100 scale (0 no effect, 100 complete control); for Ragweed plant response rating (0 to 100 scale, 0 is no effect, 100 is complete control): Preemergence, 500 g ai/ha, visual injury approx. 10 d
Summary of the method: as §2

[19] = tested on: barnyardgrass (Echinochloa crus-galli); assay: Test A preemergence; details: for Plant response rating, Barnyardgrass: 125 g ai/ha, preemergence, 0 to 100 scale (0 no effect, 100 complete control); for Barnyardgrass plant response rating (0 to 100 scale, 0 is no effect, 100 is complete control): Preemergence, 500 g ai/ha, visual injury approx. 10 d
Summary of the method: as §2

[20] = tested on: pigweed (Amaranthus retroflexus); assay: Test A preemergence; details: for Plant response rating, Pigweed: 125 g ai/ha, preemergence, 0 to 100 scale (0 no effect, 100 complete control); for Pigweed plant response rating (0 to 100 scale, 0 is no effect, 100 is complete control): Preemergence, 500 g ai/ha, visual injury approx. 10 d

**Q.** Which results are given for O=C1NCC(c2cccc(C#Cc3ccccc3)c2)C1C(=O)Nc1cccc(F)c1F (stereo not drawn) [Compound 451]?
**A.** Plant response rating, Sedge, Umbrella [1]: 0; Plant response rating, Rice [2]: 0; Plant response rating, Ducksalad [3]: 0; Plant response rating, Barnyardgrass [4]: 0; Foxtail, Giant plant response rating [5]: 0; Plant response rating, Foxtail, Giant [5]: 0; Ryegrass, Italian plant response rating [6]: 0; Plant response rating, Ryegrass, Italian [6]: 0; Corn plant response rating [7]: 0; Plant response rating, Corn [7]: 0; Galium plant response rating [8]: 0; Plant response rating, Galium [8]: 0; Kochia plant response rating [9]: 0; Plant response rating, Kochia [9]: 0; Blackgrass plant response rating [10]: 0; Plant response rating, Blackgrass [10]: 0; Ragweed plant response rating [11]: 0; Plant response rating, Ragweed [11]: 0; Barnyardgrass plant response rating [12]: 0; Plant response rating, Barnyardgrass [12]: 0; Pigweed plant response rating [13]: 0; Plant response rating, Pigweed [13]: 0; Wheat plant response rating [14]: 0; Plant response rating, Wheat [14]: 0; Plant response rating, Foxtail, Giant [15]: 0; Foxtail, Giant plant response rating (0 to 100 scale, 0 is no effect, 100 is complete control) [15]: 0; Plant response rating, Ryegrass, Italian [16]: 0; Ryegrass, Italian plant response rating (0 to 100 scale, 0 is no effect, 100 is complete control) [16]: 0; Plant response rating, Kochia [17]: 0; Kochia plant response rating (0 to 100 scale, 0 is no effect, 100 is complete control) [17]: 0; Plant response rating, Ragweed [18]: 0; Ragweed plant response rating (0 to 100 scale, 0 is no effect, 100 is complete control) [18]: 0; Plant response rating, Barnyardgrass [19]: 0; Barnyardgrass plant response rating (0 to 100 scale, 0 is no effect, 100 is complete control) [19]: 0; Plant response rating, Pigweed [20]: 0; Pigweed plant response rating (0 to 100 scale, 0 is no effect, 100 is complete control) [20]: 0

**Q.** For CS(=O)(=O)c1ccccc1NC(=O)C1C(=O)NCC1c1ccc(Br)cc1 (stereo not drawn) [Compound 452], which “Plant response rating, Sedge, Umbrella” value [1] is on record?
**A.** 0

**Q.** And the “Plant response rating, Rice” value [2]?
**A.** 0

**Q.** What about the “Plant response rating, Ducksalad” value [3] of the same molecule?
**A.** 100

**Q.** What about the “Plant response rating, Barnyardgrass” value [4] of the same molecule?
**A.** 0

**Q.** What about the “Foxtail, Giant plant response rating” value [5] of the same molecule?
**A.** 60

**Q.** What about the “Plant response rating, Foxtail, Giant” value [5] of the same molecule?
**A.** 80

**Q.** And the “Ryegrass, Italian plant response rating” value [6]?
**A.** 0

**Q.** And the “Plant response rating, Ryegrass, Italian” value [6]?
**A.** 20

**Q.** What about the “Corn plant response rating” value [7] of the same molecule?
**A.** 0

**Q.** What about the “Plant response rating, Corn” value [7] of the same molecule?
**A.** 0

**Q.** And the “Galium plant response rating” value [8]?
**A.** 50

**Q.** And the “Plant response rating, Galium” value [8]?
**A.** 50

**Q.** And the “Kochia plant response rating” value [9]?
**A.** 50

**Q.** And the “Plant response rating, Kochia” value [9]?
**A.** 70

**Q.** And the “Blackgrass plant response rating” value [10]?
**A.** 0

**Q.** And the “Plant response rating, Blackgrass” value [10]?
**A.** 60

**Q.** And the “Ragweed plant response rating” value [11]?
**A.** 0

**Q.** And the “Plant response rating, Ragweed” value [11]?
**A.** 30

**Q.** And the “Barnyardgrass plant response rating” value [12]?
**A.** 20

**Q.** What about the “Plant response rating, Barnyardgrass” value [12] of the same molecule?
**A.** 70

**Q.** And the “Pigweed plant response rating” value [13]?
**A.** 50

**Q.** What about the “Plant response rating, Pigweed” value [13] of the same molecule?
**A.** 70

**Q.** What about the “Wheat plant response rating” value [14] of the same molecule?
**A.** 0

**Q.** What about the “Plant response rating, Wheat” value [14] of the same molecule?
**A.** 20

**Q.** What about the “Plant response rating, Foxtail, Giant” value [15] of the same molecule?
**A.** 90

**Q.** What about the “Foxtail, Giant plant response rating (0 to 100 scale, 0 is no effect, 100 is complete control)” value [15] of the same molecule?
**A.** 90

**Q.** And the “Plant response rating, Ryegrass, Italian” value [16]?
**A.** 0

**Q.** And the “Ryegrass, Italian plant response rating (0 to 100 scale, 0 is no effect, 100 is complete control)” value [16]?
**A.** 30

**Q.** What about the “Plant response rating, Kochia” value [17] of the same molecule?
**A.** 60

**Q.** What about the “Kochia plant response rating (0 to 100 scale, 0 is no effect, 100 is complete control)” value [17] of the same molecule?
**A.** 70

**Q.** And the “Plant response rating, Ragweed” value [18]?
**A.** 20

**Q.** And the “Ragweed plant response rating (0 to 100 scale, 0 is no effect, 100 is complete control)” value [18]?
**A.** 60

**Q.** What about the “Plant response rating, Barnyardgrass” value [19] of the same molecule?
**A.** 60

**Q.** What about the “Barnyardgrass plant response rating (0 to 100 scale, 0 is no effect, 100 is complete control)” value [19] of the same molecule?
**A.** 90

**Q.** And the “Plant response rating, Pigweed” value [20]?
**A.** 80

**Q.** What about the “Pigweed plant response rating (0 to 100 scale, 0 is no effect, 100 is complete control)” value [20] of the same molecule?
**A.** 90
